Columns and labels:
[1] = xn = mol fraction of the nth substance listed; conditions: Ring tensiometer
[2] = Ring tensiometer

OCCN(CCO)CCO [triethanolamine] + CCO
surface tension liquid-gas [mN/m], [1]
Conditions	x1 = 0.0795	x1 = 0.1461	x1 = 0.2209	x1 = 0.3266	x1 = 0.4581	x1 = 0.6263	x1 = 0.7725	x1 = 0.8489	x1 = 0.9304	x1 = 1
288.15 K	24.1	25.4	27.12	29.68	33.17	37.65	41.56	43.57	45.78	47.64
293.15 K	23.69	25.02	26.77	29.34	32.72	37.11	40.89	42.86	44.96	46.77
298.15 K	23.32	24.7	26.42	28.97	32.29	36.57	40.24	42.16	44.22	45.88
303.15 K	23.02	24.41	26.11	28.61	31.87	36.02	39.61	41.47	43.47	45.16
308.15 K	22.71	24.12	25.78	28.21	31.42	35.48	39	40.83	42.77	44.42
313.15 K	22.35	23.81	25.46	27.79	30.89	34.82	38.21	39.97	41.84	43.4

CCO [ethanol]
Conditions	surface tension liquid-gas [mN/m]
[2], 298.15 K	21.85

OCCN(CCO)CCO [triethanolamine]
[2]
Conditions	surface tension liquid-gas [mN/m]
288.15 K	47.64
293.15 K	46.77
298.15 K	45.88
303.15 K	45.16
308.15 K	44.42
313.15 K	43.4

CN(CCO)CCO [N-methyldiethanolamine]
[2]
Conditions	surface tension liquid-gas [mN/m]
288.15 K	39.99
293.15 K	39.26
298.15 K	38.92
303.15 K	38.08
308.15 K	37.63
313.15 K	37.25

CCO [ethanol] + CN(CCO)CCO
Conditions	surface tension liquid-gas [mN/m]
[1], 298.15 K, x2 = 0	21.85

CCO [ethanol] + OCCN(CCO)CCO
Conditions	surface tension liquid-gas [mN/m]
[1], 298.15 K, x2 = 0	21.85

CN(CCO)CCO [N-methyldiethanolamine] + CCO
surface tension liquid-gas [mN/m], [1]
Conditions	288.15 K	293.15 K	298.15 K	303.15 K	308.15 K	313.15 K
x1 = 0.0253	23.45	23.11	22.79	22.49	22.16	21.92
x1 = 0.0321	23.58	23.24	22.92	22.63	22.27	22.04
x1 = 0.1033	24.92	24.59	24.32	24.06	23.77	23.58
x1 = 0.1629	26.03	25.7	25.45	25.26	24.94	24.81
x1 = 0.1705	26.18	25.83	25.59	25.38	25.08	24.98
x1 = 0.2474	27.58	27.24	27.02	26.79	26.53	26.44
x1 = 0.3713	29.85	29.47	29.28	28.95	28.75	28.63
x1 = 0.4806	31.8	31.4	31.18	30.84	30.62	30.49
x1 = 0.5506	33.02	32.6	32.39	32.01	31.78	31.66
x1 = 0.7035	35.58	35.06	34.92	34.48	34.24	34.07
x1 = 0.7452	36.25	35.71	35.58	35.08	34.84	34.66
x1 = 0.8227	37.51	36.91	36.71	36.09	35.8	35.57
x1 = 0.9368	39.11	38.42	38.1	37.39	37	36.73
x1 = 1	39.99	39.26	38.92	38.08	37.63	37.25

— the NIST ThermoML archive (doi:10.1021/je700647x)
